Assay results taken from US20230112958A1, “Smart Drug Delivery System and Pharmaceutical Kit for Dual Nuclear Medical Cytotoxic Theranostics” (SCV-SpezialChemikalienVertrieb GmbH, priority 2019, published 2023).
Read-outs that look alike come from different tables or passages of the source. Each block holds one molecule with its values, some of them ahead of it. Non-standard residues stand in square brackets, D forms with d. Residues, ends and D or L forms follow the SMILES beside them. *: point of attachment. Dolaproine = CO[C@@H]([C@@H]1CCCN1)[C@@H](C)C(=O)O; Dil = CC[C@H](C)[C@H](NC)[C@@H](CC(=O)O)OC; X1 = C[C@@H](N*)[C@@H](O)c1ccccc1; NMeV = CN[C@H](C(=O)O)C(C)C

Columns and labels:
LNCaP cells = assay: CellTiter Blue cytotoxicity assay; assay type: cell-based; details: for IC50: 72 hours incubation, read-out: IC50 (cytotoxic action in vitro)
Experimental: In a CellTiter Blue assay, LNCaP cells were incubated with the substance to be studied for 72 hours, and then the IC50 of the compound was determined.

PSMA = biological target: T1, PSMA (Homo sapiens, UniProt Q04609); assay: Cell-based competitive PSMA binding assay on LNCaP cells against reference 68Ga[Ga]PSMA-10
T1 construct: incubated in the wells with the LNCaP cells for 45 min; endogenous in cells; host or cells: LNCaP cells
T1 sequence (Q04609 whole entry): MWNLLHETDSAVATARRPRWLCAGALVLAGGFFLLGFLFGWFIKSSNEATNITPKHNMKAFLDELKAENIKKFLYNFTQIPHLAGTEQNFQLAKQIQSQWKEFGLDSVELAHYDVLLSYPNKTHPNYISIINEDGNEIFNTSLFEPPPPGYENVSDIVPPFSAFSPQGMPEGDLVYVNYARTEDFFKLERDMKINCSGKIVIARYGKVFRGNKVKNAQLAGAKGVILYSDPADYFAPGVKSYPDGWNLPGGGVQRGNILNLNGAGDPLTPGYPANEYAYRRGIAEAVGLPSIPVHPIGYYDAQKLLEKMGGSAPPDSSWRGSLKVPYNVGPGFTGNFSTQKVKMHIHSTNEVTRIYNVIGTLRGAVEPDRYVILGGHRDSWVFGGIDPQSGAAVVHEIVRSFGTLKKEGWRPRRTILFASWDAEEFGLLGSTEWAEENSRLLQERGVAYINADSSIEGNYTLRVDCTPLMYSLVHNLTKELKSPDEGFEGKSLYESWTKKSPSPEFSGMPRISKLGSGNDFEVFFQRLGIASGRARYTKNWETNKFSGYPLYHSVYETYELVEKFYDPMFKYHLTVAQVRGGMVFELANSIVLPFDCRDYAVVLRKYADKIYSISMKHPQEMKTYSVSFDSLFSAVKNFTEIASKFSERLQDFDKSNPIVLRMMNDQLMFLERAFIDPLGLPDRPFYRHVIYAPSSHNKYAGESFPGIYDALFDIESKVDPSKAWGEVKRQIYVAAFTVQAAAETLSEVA
Experimental: By means of a cell-based assay, the affinity of the target vector-linker units QS.KuE, QS.K.EuE and KuE with a lipophilic linker—analogously to PSMA-617—and the affinity of the substructures NH2.DOTAGA.617.KuE and NH2-DOTAGA.QS.KuE was determined. In addition, the PSMA affinity of the structure MMAE.ValCit.QS.617.KuE which is preferred in accordance with the invention (see scheme 30) was determined.
For the essay, LNCaP cells were pipetted into multiwell plates (Merck Millipore Multiscreen™). The compounds to be analyzed were each admixed with a defined amount or concentration of the reference compound ^68Ga[Ga]PSMA-10 with a known Kd value and incubated in the wells with the LNCaP cells for 45 min. After repeated washing, the cell-bound activity was determined.
In order to determine non-specific binding, all compounds were additionally admixed with an excess of the PSMA inhibitor 2-PMPA (2-(phosphonomethyl)-[…]) and subjected to the same LNCaP assay—as described above.

LNCaP tumor = system: LNCaP tumor; design: species or system Balb/c mice; details: mouse, in vivo
Experimental: DATA.QS.KuE was labeled with ^68Ga and tested in vivo on LNCaP tumor-carrying Balb/c mice. […] The selectivity of binding was determined by means of competitive co-injection of the PSMA inhibitor PMPA. […] FIGS. 10a and 10b show the maximum-intensity projections from μPET studies with [^68Ga]-PSMA-11 and, respectively, [^68Ga]-DATA.QS.KuE in LNCaP tumor-carrying Balb/c. FIGS. 11a and 11b Showtime-activity curves of [^68Ga]-PSMA-11 and, respectively, [^68Ga]-DATA.QS.KuE. […] In the case of treatment with highly ionizing radionuclides, for example ^177Lu, rather than ^68Ga, DATA.QS.KuE enables a crucial reduction in nephrotoxicity.

SMILES: CCC(C)C(C(CC(=O)N1CCCC1C(OC)C(C)C(=O)NC(C)C(O)c1ccccc1)OC)N(C)C(=O)C(NC(=O)C(C(C)C)N(C)C(=O)OCc1ccc(NC(=O)C(CCCNC(N)=O)NC(=O)C(Nc2c(NCC3CCC(C(=O)NC(Cc4ccc5ccccc5c4)C(=O)NCCCCC(NC(=O)NC(CCC(=O)O)C(=O)O)C(=O)O)CC3)c(=O)c2=O)C(C)C)cc1)C(C)C (stereo not drawn) [MMAE.ValCit.QS.617.KuE]
cell cytotoxicity in vitro compared with pure active ingredient MMAE (LNCaP cells; 72 hours): somewhat lower | IC50 (LNCaP cells): 32.2 ± 5.7 nM | IC50 (PSMA): 198.1 ± 1.9 nM | Ki (PSMA): 162 ± 3.3 nM

SMILES: CC[C@H](C)[C@@H]([C@@H](CC(=O)N1CCC[C@H]1[C@H](OC)[C@@H](C)C(=O)N[C@H](C)[C@@H](O)c1ccccc1)OC)N(C)C(=O)[C@@H](NC(=O)[C@@H](NC)C(C)C)C(C)C [MMAE, Monomethyl-auristatin E, reference compound] (H-[NMeV]V[Dil][Dolaproine]-X1)
IC50 (LNCaP cells; Homo sapiens): 0.29 ± 0.12 nM

kidney exposure/dose by comparison with PSMA-11 (LNCaP tumor): considerably lower | tumor enrichment by comparison with PSMA-11 (LNCaP tumor): approximately the same
SMILES: CN(CC(=O)O)C1(CCCCC(=O)NCCNc2c(NCCCC[C@H](NC(=O)N[C@@H](CCC(=O)O)C(=O)O)C(=O)O)c(=O)c2=O)CN(CC(=O)O)CCN(CC(=O)O)C1 [DATA.QS.KuE]

Ki (PSMA; LNCaP cells, competition with 68Ga[Ga]PSMA-10, 45 min incubation, calculated from inhibition curves, read-out: Ki (PSMA binding affinities)): 12.3 ± 3.1 nM | IC50 (PSMA; LNCaP cells, competition with 68Ga[Ga]PSMA-10, 45 min incubation, read-out: IC50 (PSMA binding affinities)): 15.1 ± 3.8 nM
SMILES: O=C(O)CCC(NC(=O)NC(CCCCNC(=O)C(Cc1ccc2ccccc2c1)NC(=O)C1CCC(CNC(=O)CN2CCN(CC(=O)O)CCN(CC(=O)O)CCN(CC(=O)O)CC2)CC1)C(=O)O)C(=O)O (stereo not drawn) [PSMA-617, reference compound]
